Assay results reported in US20120316169A1, “2-ARYL-PROPIONAMIDE DERIVATIVES USEFUL AS BRADYKININ RECEPTOR ANTAGONISTS AND PHARMACEUTICAL COMPOSITIONS CONTAINING THEM” (DOMPÉ S.P.A., priority 2009, published 2012).

Target: T1, BKB1 receptors (Homo sapiens, UniProt P46663)
T1 construct: Human (IMR-90) lung fibroblast cells expressing native B1 receptors; endogenous in cells; host or cells: IMR-90 human lung fibroblasts, interleukin-treated to up-regulate BKB1 receptors
T1 sequence (P46663 1-353): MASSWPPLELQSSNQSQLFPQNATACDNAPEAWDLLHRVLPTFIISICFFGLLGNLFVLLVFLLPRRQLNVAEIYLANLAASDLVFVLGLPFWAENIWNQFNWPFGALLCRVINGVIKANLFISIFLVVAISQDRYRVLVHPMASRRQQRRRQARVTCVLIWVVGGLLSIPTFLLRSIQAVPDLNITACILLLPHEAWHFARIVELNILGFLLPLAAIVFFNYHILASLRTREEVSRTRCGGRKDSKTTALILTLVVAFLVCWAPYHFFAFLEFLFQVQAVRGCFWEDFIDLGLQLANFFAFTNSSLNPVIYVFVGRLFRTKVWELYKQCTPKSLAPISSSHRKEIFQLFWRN
Test: Calcium mobilization assay (FLIPR), B1 receptors in IMR-90 cells
Type: cell-based
Settings: Human IMR-90 lung fibroblast cells, up-regulated BKB1 receptors, agonist desArg10-kallidin (DAKD) 2 to 8 nM, calcium-dependent fluorescence
Method: Calcium mobilization assay (FLIPR)—Human (IMR-90) lung fibroblast cells expressing native B1 receptors were harvested by trypsinization and seeded into black wall/clear bottom 96-well plates (Costar 3904; Corning Life Sciences, Acton, Mass.) at approximately 13,000 cells/well. After 1 day incubation, cells were treated with […] (0.35 ng/ml) in 10% FBS/MEM for 2 h to up-regulate BKB1 receptors. Induced cells were loaded with fluorescent calcium indicator by incubation with 2.3 μM Fluo-4/acetoxymethyl ester (Invitrogen) at 37° C. for 1.5 h in the presence of an anion transport inhibitor (2.5 mM probenecid in 1% FBS/MEM). Extracellular dye was removed by washing with assay buffer (2.5 mM probenecid, 0.1% BSA in 20 mM HEPES/HBSS without bicarbonate or phenol red, pH 7.5) and cell plates were kept in the dark until used. Test compounds were assayed at eight concentrations in triplicate. Addition of test compounds to the cell plate and incubation for 5 min at 35° C., followed by the addition of 2 to 8 nM final BK1 agonist desArg^10-kallidin (DAKD, 3×EC50) was carried out in the fluorimetric imaging plate reader (FLIPR; Molecular Devices) while continuously monitoring calcium-dependent fluorescence.

Row | IC50 [µM] | SMILES
1 | 8.91 | CC(C(N)=O)c1cccc(Nc2ccc3c(c2)OC(F)(F)O3)c1 (centres unmarked) [Compound 76, 2-{3-[(2,2-difluoro-1,3-benzodioxol-5-yl)amino]phenyl}propanamide]
2 | 6.31 | CC(C(=O)Nc1ccncn1)c1cccc(NC2CC2)c1 (centres unmarked) [Compound 14, 2-[3-(cyclopropylamino)phenyl]-N-(pyrimidin-4-yl)propanamide]
3 | 5.89 | COc1cc(Nc2cccc(C(C)C(=O)NCC(C)(C)N)c2)cc(C(F)(F)F)c1 (centres unmarked) [Compound 58, N-(2-amino-2-methylpropyl)-2-[3-{[3-methoxy-5-(trifluoromethyl)phenyl]amino}phenyl]propanamide]
4 | 11.2 | Cc1cc(NC(=O)C(C)c2cccc(Oc3cccc(F)c3)c2)n(C)n1 (centres unmarked) [Compound 11, N-(1,3-dimethyl-1H-pyrazol-5-yl)-2-[3-(3-fluorophenoxy)phenyl]propanamide]
5 | 1.2 | CC(C(=O)Nc1cnccn1)c1ccc(Oc2ccc(F)cc2)cc1 (centres unmarked) [Compound 75, 2-[4-(4-fluorophenoxy)phenyl]-N-(pyrazin-2-yl)propanamide]
6 | 8.51 | CCCC/C=C/c1cccc(C(C)C(=O)Nc2ccncn2)c1 (centres unmarked) [Compound 28, 2-{3-[hex-1-en-1-yl]phenyl}-N-(pyrimidin-4-yl)propanamide]
7 | 5.25 | COc1cc(Nc2cccc(C(C)C(=O)Nc3ccncn3)c2)cc(C(F)(F)F)c1 (centres unmarked) [Compound 55, 2-(3-{[3-methoxy-5-(trifluoromethyl)phenyl]amino}phenyl)-N-(pyrimidin-4-yl)propanamide]
8 | 8.91 | CCOCCCNC(=O)C(C)c1cccc(Nc2cc(OC)cc(C(F)(F)F)c2)c1 (centres unmarked) [Compound 52, 2-(3-{[3-methoxy-5-(trifluoromethyl)phenyl]amino}phenyl)-N-(3-ethoxypropyl)propanamide]
9 | 10 | CCn1nc(C)cc1NC(=O)C(C)c1ccc(Nc2nc(C(F)(F)F)cs2)cc1 (centres unmarked) [Compound 41, N-(1-ethyl-3-methyl-1H-pyrazol-5-yl)-2-(4-{[4-(trifluoromethyl)-1,3-thiazol-2-yl]amino}phenyl)propanamide]
10 | 3.39 | CC(C(=O)Nc1ccncn1)c1ccc(Oc2ccc(F)cc2)cc1 (centres unmarked) [Compound 72, 2-[4-(4-fluorophenoxy)phenyl]-N-(pyrimidin-4-yl)propanamide]
11 | 5.25 | CC(C(=O)Nc1ccncc1)c1ccc(Nc2cnc3ccccc3c2)cc1 (centres unmarked) [Compound 80, N-(pyridin-4-yl)-2-[4-(quinolin-3-ylamino)phenyl]propanamide]
12 | 8.51 | COc1cc(Nc2cccc(C(C)C(=O)NNC(=O)c3ccco3)c2)cc(C(F)(F)F)c1 (centres unmarked) [Compound 54, N′-{2-[3-(3-methoxy-5-(trifluoromethyl)phenylamino)phenyl]propanoyl}furan-2-carbohydrazide]

The remaining lines, values behind:

Row | SMILES | IC50 [µM]
13 | CC(C)(C)NC(=O)CNC(=O)C(C)(C)c1ccc(OS(=O)(=O)C(F)(F)F)cc1 [Compound 6, 4-(2-methyl-1-{[2-(tert-butylamino)-2-oxoethyl]amino}-1-oxopropan-2-yl)phenyl trifluoromethanesulfonate] | 17.8
14 | CC(C)Cc1ccc(C(C)C(=O)Nc2ccncc2)cc1 (centres unmarked) [Compound 37, 2-[4-(2-methylpropyl)phenyl]-N-(pyridin-4-yl)propanamide] | 1.38
15 | CC(C(=O)NCC(=O)NC(C)(C)C)c1ccc(Nc2nc(C(F)(F)F)co2)cc1 (centres unmarked) [Compound 30, N-[2-(tert-butylamino)-2-oxoethyl]-2-(4-{[4-(trifluoromethyl)-1,3-oxazol-2-yl]amino}phenyl)propanamide] | 7.76
16 | CC(C(=O)NCCCNC1CCCCC1)c1ccc(Oc2cccc3ccccc23)cc1 (centres unmarked) [Compound 63, N-[3-(cyclohexylamino)propyl]-2-[4-(naphthalen-1-yloxy)phenyl]propanamide] | 3.89
17 | CCn1cc(NC(=O)C(C)c2ccc(C(=O)c3ccccc3)s2)c(C)n1 (centres unmarked) [Compound 8, N-(1-ethyl-3-methyl-1H-pyrazol-4-yl)-2-[5-(phenylcarbonyl)thiophen-2-yl]propanamide] | 2.63
18 | CC(C(=O)NCCOc1ccc(F)cc1)c1cccc(OS(=O)(=O)C(F)(F)F)c1 (centres unmarked) [Compound 20, 3-(1-{[2-(4-fluorophenoxy)ethyl]amino}-1-oxopropan-2-yl)phenyl trifluoromethanesulfonate] | 16.6
19 | CC(C(=O)NCCC1CCN(c2ccncc2)CC1)c1ccc(Nc2ccccc2-n2cccc2)cc1 (centres unmarked) [Compound 70, N-{2-[1-(pyridin-4-yl)piperidin-4-yl]ethyl}-2-(4-{[2-(1H-pyrrol-1-yl)phenyl]amino}phenyl)propanamide] | 0.708
20 | CC(C(=O)Nc1ccncn1)c1ccc(N2CCCCC2)cc1 (centres unmarked) [Compound 69, 2-[4-(piperidin-1-yl)phenyl]-N-(pyrimidin-4-yl)propanamide] | 14.1
21 | CC(C(N)=O)c1ccc(Nc2ccc3c(c2)OC(F)(F)O3)cc1 (centres unmarked) [Compound 79, 2-{4-[(2,2-difluoro-1,3-benzodioxol-5-yl)amino]phenyl}propanamide] | 1.35
22 | CC(C(=O)Nc1ccccc1)c1cccc(C(=O)c2ccccc2)c1 (centres unmarked) [Compound 35, N-phenyl-2-[3-(phenylcarbonyl)phenyl]propanamide] | 10
23 | CC(C(=O)Nn1cnnc1)c1ccc(NS(=O)(=O)c2ccc(Cl)cc2)cc1 (centres unmarked) [Compound 78, 2-(4-{[(4-chlorophenyl)sulfonyl]amino}phenyl)-N-(4H-1,2,4-triazol-4-yl) propanamide] | 0.891
24 | COc1cccc(Nc2ccc(C(C)C(=O)Nc3cc(C)nn3C)cc2)c1OC (centres unmarked) [Compound 25, 2-{4-[(2,3-dimethoxyphenyl)amino]phenyl}-N-(1,3-dimethyl-1H-pyrazol-5-yl)propanamide] | 3.09
25 | CC(C(=O)NCCC1CCCN1C)c1ccc(Oc2cccc3ccccc23)cc1 (centres unmarked) [Compound 65, 2-[4-(naphthalen-1-yloxy)phenyl]-N-[2-(1-methylpyrrolidin-2-yl)ethyl]propanamide] | 4.79
26 | CCc1cc(NC(=O)C(C)c2ccc(Nc3nc(C(F)(F)F)co3)cc2)[nH]n1 (centres unmarked) [Compound 29, N-(3-ethyl-1H-pyrazol-5-yl)-2-(4-{[4-(trifluoromethyl)-1,3-oxazol-2-yl]amino}phenyl)propanamide] | 7.08
27 | Cc1cc(NC(=O)C(C)c2cccc(C(=O)c3cccs3)c2)n(C)n1 (centres unmarked) [Compound 24, N-(1,3-dimethyl-1H-pyrazol-5-yl)-2-[3-(thiophen-2-ylcarbonyl)phenyl]propanamide] | 7.41
28 | CC(=O)NCCNC(=O)C(C)c1ccc(Oc2cccc3ccccc23)cc1 (centres unmarked) [Compound 66, N-[2-(acetylamino)ethyl]-2-[4-(naphthalen-1-yloxy)phenyl]propanamide] | 6.61
29 | CC(F)(C(=O)Nc1ccccc1S(N)(=O)=O)c1cccc(Nc2nc(C(F)(F)F)cs2)c1 (centres unmarked) [Compound 5, 2-fluoro-N-(2-sulfamoylphenyl)-2-(3-{[4-(trifluoromethyl)-1,3-thiazol-2-yl]amino}phenyl)propanamide] | 8.71
30 | Cc1cc(NC(=O)C(C)c2cccc(C(=O)c3ccccc3)c2)n(C)n1 (centres unmarked) [Compound 36, N-(1,3-dimethyl-1H-pyrazol-5-yl)-2-[3-(phenylcarbonyl)phenyl]propanamide] | 9.77
31 | CC(F)(C(N)=O)c1ccc(OS(=O)(=O)C(F)(F)F)cc1 (centres unmarked) [Compound 1, 4-(1-amino-2-fluoro-1-oxopropan-2-yl)phenyl trifluoromethanesulfonate] | 6.46
32 | CC(C(=O)Nc1ccc(Cc2ccncc2)cc1)c1ccc(OS(=O)(=O)C(F)(F)F)cc1 (centres unmarked) [Compound 48, 4-{1-oxo-1-[4-(pyridin-4-ylmethyl)propan-2-yl]amino}phenyl trifluoromethanesulfonate] | 12.6
33 | CC(C(=O)NCCNCc1ccccc1)c1ccc(Oc2cccc3ccccc23)cc1 (centres unmarked) [Compound 61, N-[2-(benzylamino)ethyl]-2-[4-(naphthalen-1-yloxy)phenyl]propanamide] | 3.24
34 | CC(C(=O)Nn1cnnc1)c1ccc(Oc2cccc3ccccc23)cc1 (centres unmarked) [Compound 64, 2-[4-(naphthalen-1-yloxy)phenyl]-N-(4H-1,2,4-triazol-4-yl)propanamide] | 8.91
35 | CC(C(=O)NCCCN(C)C)c1ccc(Oc2cccc3ccccc23)cc1 (centres unmarked) [Compound 62, N-[3-(dimethylamino)propyl]-2-[4-(naphthalen-1-yloxy)phenyl]propanamide] | 3.8
36 | CC(C(=O)NC1CCCCC1)c1cccc(C(=O)c2ccccc2)c1 (centres unmarked) [Compound 34, N-cyclohexyl-2-[3-(phenylcarbonyl)phenyl]propanamide] | 8.51
37 | Cc1ccc(Cl)c(Nc2ccc(C(C)C(=O)NCCN3CCOCC3)cc2)c1Cl (centres unmarked) [Compound 16, 2-{4-[(2,6-dichloro-3-methylphenyl)amino]phenyl}-N-[2-(morpholin-4-yl)ethyl]propanamide] | 12
38 | COc1cccc(CN(C)CCNC(=O)C(C)c2ccc(NS(=O)(=O)C(C)C)cc2)c1 (centres unmarked) [Compound 22] | 8.13
